Measurements from patent EP4483954A1 (Masarykova Univerzita, priority 2023, dated 2025).
pIC50: −log10 of the molar value.

Biological target: T1, Haspin (h) (Homo sapiens, UniProt Q8TF76)
T1 construct: purchased Eurofins (KinaseProfiler)
T1 sequence (Q8TF76 1-798): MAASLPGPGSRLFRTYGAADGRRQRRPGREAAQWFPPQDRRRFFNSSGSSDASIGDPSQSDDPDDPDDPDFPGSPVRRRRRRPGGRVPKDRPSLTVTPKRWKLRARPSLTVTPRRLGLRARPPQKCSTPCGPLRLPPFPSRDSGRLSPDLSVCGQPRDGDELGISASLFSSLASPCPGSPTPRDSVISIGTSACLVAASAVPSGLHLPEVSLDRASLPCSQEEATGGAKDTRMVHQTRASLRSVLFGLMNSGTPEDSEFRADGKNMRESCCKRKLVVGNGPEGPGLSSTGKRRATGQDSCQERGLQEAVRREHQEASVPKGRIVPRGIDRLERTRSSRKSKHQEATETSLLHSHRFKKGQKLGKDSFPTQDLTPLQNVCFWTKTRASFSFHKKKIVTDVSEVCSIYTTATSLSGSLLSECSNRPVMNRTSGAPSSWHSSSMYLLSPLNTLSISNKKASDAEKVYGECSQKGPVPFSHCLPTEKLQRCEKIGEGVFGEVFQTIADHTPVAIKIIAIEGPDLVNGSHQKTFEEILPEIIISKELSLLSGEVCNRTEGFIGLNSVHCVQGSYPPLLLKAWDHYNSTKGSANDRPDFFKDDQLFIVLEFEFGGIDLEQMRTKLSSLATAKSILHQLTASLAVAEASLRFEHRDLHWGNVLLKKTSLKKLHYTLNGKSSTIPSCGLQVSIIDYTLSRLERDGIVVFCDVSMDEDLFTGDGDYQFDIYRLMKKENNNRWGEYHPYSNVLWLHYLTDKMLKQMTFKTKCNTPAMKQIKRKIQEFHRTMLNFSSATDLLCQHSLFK
Test: radiometric kinase assay (KinaseProfiler, Eurofins), Haspin
Format: biochemical
Conditions: in vitro radiometric kinase assay, tested at 1 nM to 10 000 nM, no pre-incubation; read-out: inhibitory activities (IC50 values) Haspin
Description: The compounds were profiled in the radiometric assays (KinaseProfiler, Eurofins).
Briefly, kinases were diluted in the buffer shown below prior to addition to the reaction mix: • CDKL3, TAF1L: 20 mM Tris/HCl pH 8.5, 0.2 mM EDTA, 0.1% β-mercaptoethanol, 0.01% Brij-35, 5% glycerol, 1 mg/ml BSA; • Haspin: 15 mM MOPS, 0.75 mM EDTA, 0.0075% Brij-35, 3.75% Glycerol, 150 mM NaCl, 0.1% β-mercaptoethanol, 1 mg/mLBSA; • CDKL4, CLK2, PIM1, TRB2: […], 1 mM EDTA, 0.01% Brij-35, 5% Glycerol, 0.1% β-mercaptoethanol, 1 mg/mL BSA.
All compounds were prepared to 50x final assay concentration in 100% DMSO. This working stock of the compound was added to the assay well as the first component in the reaction, followed by the remaining components as detailed in the general assay protocols below. There was no pre-incubation step between the compound and the kinase prior to initiation of the reaction.
Haspin (h) was incubated with 8 mM MOPS pH 7.0, 0.2 mM EDTA, 500 µM RARTLSFAEPG (SEQ ID NO. 3), 10 mM magnesium acetate and γ-^33P-ATP (specific activity and concentration as required). The reaction was initiated by the addition of the Mg/ATP mix. After incubation for 40 minutes at room temperature, the reaction was stopped by the addition of phosphoric acid to a concentration of 0.5%. An aliquot of the reaction was then spotted onto a filter and washed four times for 4 minutes in 0.425% phosphoric acid and once in methanol prior to drying and scintillation counting.
Kinase activity data were expressed as the percent remaining kinase activity in tested samples compared to the vehicle (DMSO) reactions. The compounds were tested at the following concentrations: 1 nM, 3 nM, 10 nM, 30 nM, 100 nM, 300 nM, 1000 nM, 3000 nM, and 10 000 nM; IC50 values and curve fits were then obtained.

Row | pIC50 | SMILES
1 | 6.30 to 7.00 | Cn1cc(-c2ccc3scc(-c4cncnc4)c3n2)cn1 [Preparative Example 38, 5-(1-methyl-1H-pyrazol-4-yl)-3-(pyrimidin-5-yl)thieno[3,2-b]pyridine]
2 | 5.52 to 6.30 | CN(c1ccc2scc(-c3ccncc3)c2n1)c1ccn(C)n1 [Preparative Example 100, N-methyl-N-(1-methyl-1H-pyrazol-3-yl)-3-(pyridin-4-yl)thieno[3,2-b]pyridin-5-amine]
3 | 5.00 to 5.52 | CC(C)(C)OC(=O)n1cc(Nc2ccc3scc(-c4ccc5ncnn5c4)c3n2)cn1 [Preparative Example 133, tert-butyl 4-((3-([1,2,4]triazolo[1,5-a]pyridin-6-yl)thieno[3,2-b]pyridin-5-yl)amino)-1H-pyrazole-1-carboxylate]
4 | 7.00 to 7.70 | Cn1cc(-c2ccc3scc(-c4ccnc(N)c4)c3n2)cn1 [Preparative Example 25, 4-(5-(1-methyl-1H-pyrazol-4-yl)thieno[3,2-b]pyridin-3-yl)pyridin-2-amine]
5 | 6.30 to 7.00 | Cn1ccc(Oc2ccc3scc(-c4ccncc4)c3n2)n1 [Preparative Example 110, 5-((1-methyl-1H-pyrazol-3-yl)oxy)-3-(pyridin-4-yl)thieno[3,2-b]pyridine]
6 | 7.00 to 7.70 | Cn1cc(-c2ccc3scc(-c4ccc5nccn5c4)c3n2)cn1 [Preparative Example 57, 3-(imidazo[1,2-a]pyridin-6-yl)-5-(1-methyl-1H-pyrazol-4-yl)thieno[3,2-b]pyridine]
7 | 6.30 to 7.00 | Cn1cc(-c2ccc3scc(-c4ccnc5[nH]ccc45)c3n2)cn1 [Preparative Example 45, 5-(1-methyl-1H-pyrazol-4-yl)-3-(1H-pyrrolo[2,3-b]pyridin-4-yl)thieno[3,2-b]pyridine]
8 | 5.00 to 5.52 | c1cnc(-c2ccc3scc(-c4ccncc4)c3n2)nc1 [Preparative Example 112, 3-(pyridin-4-yl)-5-(pyrimidin-2-yl)thieno[3,2-b]pyridine]
9 | 5.52 to 6.30 | CCn1ccc(-c2ccc3scc(-c4ccncc4)c3n2)n1 [Preparative Example 87, 5-(1-ethyl-1H-pyrazol-3-yl)-3-(pyridin-4-yl)thieno[3,2-b]pyridine]
10 | 6.30 to 7.00 | Cn1cc(-c2ccc3scc(-c4ccnc(NC(=O)OC(C)(C)C)c4)c3n2)cn1 [Preparative Example 24, tert-butyl (4-(5-(1-methyl-1H-pyrazol-4-yl)thieno[3,2-b]pyridin-3-yl)pyridin-2-yl)carbamate]
11 | 6.30 to 7.00 | c1ccc(-c2ccc3scc(-c4ccncc4)c3n2)nc1 [Preparative Example 111, 5-(pyridin-2-yl)-3-(pyridin-4-yl)thieno[3,2-b]pyridine]
12 | 6.30 to 7.00 | Cn1cc(-c2ccc3scc(-c4ccc5nncn5c4)c3n2)cn1 [Preparative Example 59, 3-([1,2,4]-triazolo[4,3-a]pyridin-6-yl)-5-(1-methyl-1H-pyrazol-4-yl)thieno[3,2-b]pyridine]
13 | 7.00 to 7.70 | Cn1cc(C#N)c(Nc2ccc3scc(-c4ccns4)c3n2)n1 [Preparative Example 120, 3-((3-(isothiazol-5-yl)thieno[3,2-b]pyridin-5-yl)amino)-1-methyl-1H-pyrazole-4-carbonitrile]
14 | 5.00 to 5.52 | Cn1ccc(CNc2ccc3scc(-c4ccncc4)c3n2)n1 [Preparative Example 108, N-((1-methyl-1H-pyrazol-3-yl)methyl)-3-(pyridin-4-yl)thieno[3,2-b]pyridin-5-amine]
15 | 6.30 to 7.00 | Cc1cc(Nc2ccc3scc(-c4ccncc4)c3n2)nn1C [Preparative Example 102, N-(1,5-dimethyl-1H-pyrazol-3-yl)-3-(pyridin-4-yl)thieno[3,2-b]pyridin-5-amine]
16 | 5.52 to 6.30 | c1cnc2c(-c3ccc4scc(-c5ccncc5)c4n3)cnn2c1 [Preparative Example 115, 5-(pyrazolo[1,5-a]pyrimidin-3-yl)-3-(pyridin-4-yl)thieno[3,2-b]pyridine]
17 | 5.52 to 6.30 | c1cnc(-c2ccc3scc(-c4ccc5ncnn5c4)c3n2)nc1 [Preparative Example 130, 3-([1,2,4]triazolo[1,5-a]pyridin-6-yl)-5-(pyrimidin-2-yl)thieno[3,2-b]pyridine]
18 | 5.00 to 5.52 | COC(=O)c1cn(C)nc1Nc1ccc2scc(-c3ccnc(CN)c3)c2n1 [Preparative Example 128, Methyl 3-((3-(2-(aminomethyl)pyridin-4-yl)thieno[3,2-b]pyridin-5-yl)amino)-1-methyl-1H-pyrazole-4-carboxylate]
19 | 6.30 to 7.00 | CSc1cn(C)nc1Nc1ccc2scc(-c3ccncc3)c2n1 [Preparative Example 106, N-(1-methyl-4-(methylthio)-1H-pyrazol-3-yl)-3-(pyridin-4-yl)thieno[3,2-b]pyridin-5-amine]
20 | 6.30 to 7.00 | c1cc(-c2csc3ccc(OCC4CNCCO4)nc23)ccn1 (stereo not shown) [Preparative Example 118, 2-(((3-(pyridin-4-yl)thieno[3,2-b]pyridin-5-yl)oxy)methyl)-morpholine]
21 | 6.30 to 7.00 | Cn1cc(-c2ccc3scc(-c4ccnc(O)c4)c3n2)cn1 [Preparative Example 18, 4-(5-(1-methyl-1H-pyrazol-4-yl)thieno[3,2-b]-pyridin-3-yl)pyridin-2-ol]
22 | 5.00 to 5.52 | Cn1nc(Nc2ccc3scc(-c4ccncc4)c3n2)cc1NC(=O)OC(C)(C)C [Preparative Example 103, tert-butyl (1-methyl-3-((3-(pyridin-4-yl)thieno[3,2-b]pyridin-5-yl)-amino)-1H-pyrazol-5-yl)carbamate]
23 | 5.00 to 5.52 | CC(C)(C)n1ccc(-c2ccc3scc(-c4ccncc4)c3n2)n1 [Preparative Example 80, 5-(1-(tert-butyl)-1H-pyrazol-3-yl)-3-(pyridin-4-yl)thieno[3,2-b]pyridine]
24 | 5.00 to 5.52 | CC(C)(C)OC(=O)N1CCOC(COc2ccc3scc(-c4ccncc4)c3n2)C1 (stereo not shown) [Preparative Example 116, tert-butyl 2-(((3-(pyridin-4-yl)thieno[3,2-b]pyridin-5-yl)oxy)-methyl)morpholine-4-carboxylate]
25 | 5.52 to 6.30 | Cn1ccc(Nc2ccc3scc(-c4ccc5nncn5c4)c3n2)n1 [Preparative Example 135, 3-([1,2,4]triazolo[4,3-a]pyridin-6-yl)-N-(1-methyl-1H-pyrazol-3-yl)thieno[3,2-b]pyridin-5-amine]
26 | 6.30 to 7.00 | Cn1cc(-c2ccc3scc(-c4cnc5ccnn5c4)c3n2)cn1 [Preparative Example 55, 5-(1-methyl-1H-pyrazol-4-yl)-3-(pyrazolo[1,5-a]-pyrimidin-6-yl)thieno[3,2-b]pyridine]
27 | 6.30 to 7.00 | c1cncc(-c2ccc3scc(-c4ccc5ncnn5c4)c3n2)c1 [Preparative Example 131, 3-([1,2,4]triazolo[1,5-a]pyridin-6-yl)-5-(pyridin-3-yl)thieno[3,2-b]pyridine]
28 | 6.30 to 7.00 | Cn1cc(Nc2ccc3scc(-c4ccncc4)c3n2)cn1 [Preparative Example 97, N-(1-methyl-1H-pyrazol-4-yl)-3-(pyridin-4-yl)thieno[3,2-b]pyridin-5-amine]

Row | SMILES | pIC50
29 | CCOC(=O)c1cn(C)nc1Nc1ccc2scc(-c3ccnc(NC(=O)OC(C)(C)C)c3)c2n1 [Preparative Example 126, Ethyl 3-((3-(2-((tert-butoxycarbonyl)amino)pyridin-4-yl)thieno[3,2-b]pyridin-5-yl)amino)-1-methyl-1H-pyrazole-4-carboxylate] | 5.00 to 5.52
30 | Cn1ccc(Sc2ccc3scc(-c4ccncc4)c3n2)n1 | 5.52 to 6.30
31 | Cn1cc(-c2ccc3scc(-c4ccnc(CNC(=O)OC(C)(C)C)c4)c3n2)cn1 | 5.00 to 5.52
